According to ChEMBL document CHEMBL4699433, “Rational design, synthesis and testing of novel tricyclic topoisomerase inhibitors for the treatment of bacterial infections part 2” (RSC Med Chem, 2020):
Values after ≈ are worked out from the molar mass of the structure shown.

Columns and labels:
Staphylococcus aureus [1] = assay: Antibacterial activity against wild type methicillin-sensitive Staphylococcus aureus ATCC 29213 assessed as reduction in bacterial growth by CLSI based broth microdilution method; assay type: functional
Streptococcus pneumoniae = assay: Antibacterial activity against Streptococcus pneumoniae ATCC 49619 assessed as reduction in bacterial growth by CLSI based broth microdilution method; assay type: functional
Escherichia coli = assay: Antibacterial activity against Escherichia coli ATCC 25922 assessed as reduction in bacterial growth by CLSI based broth microdilution method; assay type: functional
Haemophilus influenzae = assay: Antibacterial activity against Haemophilus influenzae ATCC 49247 assessed as reduction in bacterial growth by CLSI based broth microdilution method; assay type: functional
Staphylococcus aureus [2] = assay: Antibacterial activity against methicillin-resistant Staphylococcus aureus N315 NRS70 assessed as reduction in bacterial growth by CLSI based broth microdilution method; assay type: functional
Staphylococcus aureus [3] = assay: Antibacterial activity against COL-resistant, methicillin-resistant Staphylococcus aureus NRS100 assessed as reduction in bacterial growth by CLSI based broth microdilution method; assay type: functional
Staphylococcus aureus [4] = assay: Antibacterial activity against AMG-, QAC-, TMP- resistant methicillin- resistant Staphylococcus aureus NRS106 assessed as reduction in bacterial growth by CLSI based broth microdilution method; assay type: functional
Staphylococcus aureus [5] = assay: Antibacterial activity against MUP resistant (RN4220 + pGO400), methicillin-resistant Staphylococcus aureus NRS107 assessed as reduction in bacterial growth by CLSI based broth microdilution method; assay type: functional
Staphylococcus aureus [6] = assay: Antibacterial activity against AMG-resistant, methicillin-resistant Staphylococcus aureus NRS108 assessed as reduction in bacterial growth by CLSI based broth microdilution method; assay type: functional
Staphylococcus aureus [7] = assay: Antibacterial activity against CA-MRSA ERY-, TET-resistant, FQ Int resistant (USA300 LAC) Staphylococcus aureus NRS384 assessed as reduction in bacterial growth by CLSI based broth microdilution method; assay type: functional
Staphylococcus aureus [8] = assay: Antibacterial activity against Staphylococcus aureus ATCC 43300 assessed as reduction in bacterial growth by CLSI based broth microdilution method; assay type: functional
Staphylococcus aureus [9] = assay: Antibacterial activity against FQ-resistant methicillin-resistant Staphylococcus aureus NRS74 assessed as reduction in bacterial growth by CLSI based broth microdilution method; assay type: functional
Staphylococcus aureus [10] = assay: Antibacterial activity against AMG- and TET-resistant (Mu50) GyrA (S84L,E409L), GrlA (S80F), methicillin-resistant Staphylococcus aureus NRS1 assessed as reduction in bacterial growth by CLSI based broth microdilution method; assay type: functional
Staphylococcus aureus [11] = assay: Antibacterial activity against LZD-resistant, methicillin-resistant Staphylococcus aureus NRS127 assessed as reduction in bacterial growth by CLSI based broth microdilution method; assay type: functional
Staphylococcus aureus [12] = assay: Antibacterial activity against Staphylococcus aureus VRS1 assessed as reduction in bacterial growth by CLSI based broth microdilution method; assay type: functional
Staphylococcus aureus [13] = assay: Antibacterial activity against FQ-resistant, methicillin-resistant Staphylococcus aureus NRS482 assessed as reduction in bacterial growth by CLSI based broth microdilution method; assay type: functional
Staphylococcus aureus [14] = assay: Antibacterial activity against LZD-resistant methicillin-resistant Staphylococcus aureus NRS271 assessed as reduction in bacterial growth by CLSI based broth microdilution method; assay type: functional
Staphylococcus aureus [15] = assay: Antibacterial activity against VAN resistant methicillin- resistant Staphylococcus aureus VRS8 assessed as reduction in bacterial growth by CLSI based broth microdilution method; assay type: functional
Enterococcus faecalis = assay: Antibacterial activity against wild type Enterococcus faecalis ATCC 29212 assessed as reduction in bacterial growth by CLSI based broth microdilution method; assay type: functional
[16] = test system: Staphylococcus epidermidis; assay: Antibacterial activity against wild type Staphylococcus epidermidis ATCC 12228 assessed as reduction in bacterial growth by CLSI based broth microdilution method; assay type: functional
[17] = test system: Staphylococcus epidermidis; assay: Antibacterial activity against MRSE AMG-, ERY-resistant Staphylococcus epidermidis NRS101 assessed as reduction in bacterial growth by CLSI based broth microdilution method; assay type: functional
Enterococcus faecium [18] = assay: Antibacterial activity against wild type Enterococcus faecium ATCC 19434 assessed as reduction in bacterial growth by CLSI based broth microdilution method; assay type: functional
Enterococcus faecium [19] = assay: Antibacterial activity against VAN-resistant Enterococcus faecium ATCC 700221 assessed as reduction in bacterial growth by CLSI based broth microdilution method; assay type: functional
Streptococcus pyogenes = assay: Antibacterial activity against wild type Streptococcus pyogenes ATCC 19615 assessed as reduction in bacterial growth by CLSI based broth microdilution method; assay type: functional
Neisseria gonorrhoeae [20] = assay: Antibacterial activity against wild-type Neisseria gonorrhoeae ATCC 49226 assessed as reduction in bacterial growth by agar dilution method; assay type: functional
Neisseria gonorrhoeae [21] = assay: Antibacterial activity against wild type Neisseria gonorrhoeae ATCC 700825 assessed as reduction in bacterial growth by agar dilution method; assay type: functional
[22] = Cytotoxicity against human HepG2 cells; assay type: cell-based
[23] = Protein binding in human plasma assessed as free fraction; assay type: ADME, cell-free
[24] = Intrinsic clearance in human hepatocytes assessed per 10^6 cells; assay type: ADME, cell-based, Hepatocyte; conditions: read-out: CLH
[25] = Efflux ratio of permeability in human Caco2 cells; assay type: ADME, cell-based; conditions: Caco-2
Cytochrome P450 1A2 = Cytochrome P450 1A2 (Homo sapiens, UniProt P05177); assay: Inhibition of CYP1A2 (unknown origin); assay type: ADME
Cytochrome P450 2C9 = Cytochrome P450 2C9 (Homo sapiens, UniProt P11712); assay: Inhibition of CYP2C9 (unknown origin); assay type: ADME
Cytochrome P450 2C19 = Cytochrome P450 2C19 (Homo sapiens, UniProt P33261); assay: Inhibition of CYP2C19 (unknown origin); assay type: ADME
Cytochrome P450 2D6 = Cytochrome P450 2D6 (Homo sapiens, UniProt P10635); assay: Inhibition of CYP2D6 (unknown origin); assay type: ADME
Cytochrome P450 3A4 = Cytochrome P450 3A4 (Homo sapiens, UniProt P08684); assay: Inhibition of CYP3A4 (unknown origin); assay type: ADME
[26] = Kinetic solubility of compound at pH 7.4; assay type: physicochemical; conditions: buffer, read-out: Kinetic_solubility
[27] = target: Voltage-gated inwardly rectifying potassium channel KCNH2 (Homo sapiens, UniProt Q12809); assay: Inhibition of human ERG by patch clamp assay
[28] = target: Sodium channel protein type 5 subunit alpha (Homo sapiens, UniProt Q14524); assay: Inhibition of Nav1.5 (unknown origin) by patch clamp assay
[29] = target: Voltage-dependent L-type calcium channel subunit alpha-1C (Homo sapiens, UniProt Q13936); assay: Inhibition of Cav1.2 (unknown origin) by patch clamp assay
TK6 [30] = assay: Genotoxicity in human TK6 cells at 200 uM in absence of S9 fraction by BlueScreen assay; assay type: toxicity, cell-based; conditions: tk6, 200 µM
TK6 [31] = assay: Genotoxicity in human TK6 cells at 200 uM in presence of S9 fraction by BlueScreen assay; assay type: toxicity, cell-based; conditions: s9, 200 µM
[32] = Apparent permeability in human Caco2 cells; assay type: ADME, cell-based; conditions: Caco-2
Staphylococcus aureus [33] = assay: Antibacterial activity against Staphylococcus aureus clinical isolate assessed as reduction in bacterial growth by CLSI based broth microdilution method; assay type: functional
DNA gyrase = DNA gyrase (Staphylococcus aureus, UniProt P0A0K8+P20831); assay: Inhibition of Staphylococcus aureus DNA gyrase using relaxed pBR322 as substrate incubated for 30 mins by ethidium bromide staining based gel electrophoresis analysis; assay type: protein-complex assay
Topoisomerase IV = Topoisomerase IV (Staphylococcus aureus, UniProt P0C1S7+P0C1U9); assay: Inhibition of Staphylococcus aureus topoisomerase IV using kDNA as substrate incubated for 30 mins by ethidium bromide staining based gel electrophoresis analysis; assay type: protein-complex assay

Cc1nc2c(=O)n(C3CC3)c3c(Cl)c(N4CC[C@@H]([C@H](C)N)C4)c(F)cc3c2o1
MIC (Staphylococcus aureus [1]): 0.06 µg/mL (≈ 0.148 µM) | MIC (Streptococcus pneumoniae): 0.015 µg/mL (≈ 0.037 µM) | MIC (Escherichia coli): 0.5 µg/mL (≈ 1.23 µM) | MIC (Haemophilus influenzae): 1 µg/mL (≈ 2.47 µM) | MIC (Staphylococcus aureus [2]): 0.06 µg/mL (≈ 0.148 µM) | MIC (Staphylococcus aureus [3]): 0.12 µg/mL (≈ 0.296 µM) | MIC (Staphylococcus aureus [4]): 0.12 µg/mL (≈ 0.296 µM) | MIC (Staphylococcus aureus [5]): 0.12 µg/mL | MIC (Staphylococcus aureus [6]): 0.12 µg/mL (≈ 0.296 µM) | MIC (Staphylococcus aureus [7]): 0.12 µg/mL (≈ 0.296 µM) | MIC (Staphylococcus aureus [8]): 0.12 µg/mL (≈ 0.296 µM) | MIC (Staphylococcus aureus [9]): 0.12 µg/mL (≈ 0.296 µM) | MIC (Staphylococcus aureus [10]): 0.25 µg/mL (≈ 0.617 µM) | MIC (Staphylococcus aureus [11]): 0.5 µg/mL (≈ 1.23 µM) | MIC (Staphylococcus aureus [12]): 0.5 µg/mL (≈ 1.23 µM) | MIC (Staphylococcus aureus [13]): 0.12 µg/mL (≈ 0.296 µM) | MIC (Staphylococcus aureus [14]): 0.5 µg/mL (≈ 1.23 µM) | MIC (Staphylococcus aureus [15]): 0.5 µg/mL (≈ 1.23 µM) | MIC (Enterococcus faecalis): 0.12 µg/mL (≈ 0.296 µM) | MIC [16]: 0.06 µg/mL (≈ 0.148 µM) | MIC [17]: 1 µg/mL (≈ 2.47 µM) | MIC (Enterococcus faecium [18]): 8 µg/mL (≈ 19.8 µM) | MIC (Enterococcus faecium [19]): 8 µg/mL (≈ 19.8 µM) | MIC (Streptococcus pyogenes): 0.015 µg/mL (≈ 0.037 µM) | MIC (Neisseria gonorrhoeae [20]): 0.12 µg/mL (≈ 0.296 µM) | MIC (Neisseria gonorrhoeae [21]): 0.03 µg/mL (≈ 0.0741 µM) | CC50 [22]: 32 µg/mL (≈ 79 µM) | fraction unbound [23]: 0.244 | hepatocyte CLint [24]: 3 µL/min/1e6 cells | efflux ratio [25]: 2.2 | IC50 (Cytochrome P450 1A2): 30 µM | IC50 (Cytochrome P450 2C9): 16.4 µM | IC50 (Cytochrome P450 2C19): 30 µM | IC50 (Cytochrome P450 2D6): 30 µM | IC50 (Cytochrome P450 3A4): 17.5 µM | solubility kinetic [26]: > 100 µM | IC50 [27]: 28.7 µM | IC50 [28]: 21.5 µM | IC50 [29]: 93.6 µM | Activity (TK6 [30]): Non-Toxic | Activity (TK6 [31]): Toxic | Papp [32]: 20.7 ×10⁻⁶ cm/s | MIC90 (Staphylococcus aureus [33]): 0.5 µg/mL (≈ 1.23 µM) | IC50 (DNA gyrase): 1.82 µM | IC50 (Topoisomerase IV): 6.1 µM
